We go through 87 compounds from PubChem BioAssay AID1645864 (Buhrlage Lab, Dana-Farber Cancer Institute and Novartis …, 2021).

Activity calls are given as the source filed them.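 The calls were made as follows: active = maximal inhibition of USP17 at or above 30% in the confirmation dose-response, a value not among the printed readouts; inactive = the rest.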

This test deals with Ubiquitin carboxyl-terminal hydrolase 17-like protein 5 (Homo sapiens) (UniProt A8MUK1). Nature of the test: ubiquitin-specific protease 17 inhibitors, concentration series, biochemical, verification of primary actives (AID 1645864). Conditions: purified USP17, ubiquitin-rhodamine cleavage fluorescence, 3 h.
Chain of Ubiquitin carboxyl-terminal hydrolase 17-like protein 5 (Homo sapiens) (A8MUK1 whole entry, looked up): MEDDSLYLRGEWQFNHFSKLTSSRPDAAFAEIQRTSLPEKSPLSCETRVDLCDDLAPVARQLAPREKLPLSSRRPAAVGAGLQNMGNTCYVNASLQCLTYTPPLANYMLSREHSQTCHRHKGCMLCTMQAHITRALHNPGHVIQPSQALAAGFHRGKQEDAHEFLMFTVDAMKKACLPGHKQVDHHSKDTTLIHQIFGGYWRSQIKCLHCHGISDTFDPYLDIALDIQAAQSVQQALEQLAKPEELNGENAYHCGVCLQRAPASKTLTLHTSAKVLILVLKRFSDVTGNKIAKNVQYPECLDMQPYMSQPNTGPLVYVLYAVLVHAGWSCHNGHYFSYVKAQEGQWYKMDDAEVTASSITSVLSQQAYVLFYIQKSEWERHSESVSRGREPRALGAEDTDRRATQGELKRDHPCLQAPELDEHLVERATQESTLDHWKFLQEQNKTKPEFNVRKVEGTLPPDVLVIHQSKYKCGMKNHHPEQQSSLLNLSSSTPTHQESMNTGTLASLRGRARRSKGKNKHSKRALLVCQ
As to `O=C(NCc1ccc2c(c1)OCO2)c1nc(-c2ccccc2)n(-c2ccccc2)n1`, the IC50 – broadly, the concentration that inhibits the measured activity by half – was > 50 µM (inactive). With `CCN(C(=O)c1cc2c(s1)-c1ccccc1OC2)c1ccccc1F`, the IC50 was > 50 µM (inactive).

Regarding `CN1CCN(c2ncnc3c2oc2ccc(Cl)cc23)CC1`, the IC50 is > 50 µM (inactive).

Take `N#Cc1ccccc1Cn1c(=O)n(CCCCC(=O)NCCc2ccccc2)c(=O)c2ccccc21`: the IC50 was 10 µM.

Consider `Cc1ccc(CNC(=O)c2cccc(N3C(=O)N4CCc5c([nH]c6ccccc56)[C@@]4(C)C3=O)c2)cc1`, for which the concentration for half-maximal inhibition (IC50) was 23.1 µM. Next, `O=C(Cc1cccc2ccccc12)Nc1nc2ccc(F)cc2s1`: > 50 µM (inactive).

Turning to `CCC(C(=O)NCc1ccncc1)N(c1cccc(Cl)c1)S(C)(=O)=O` (configuration not stated), the IC50 is > 50 µM (inactive). Regarding `COc1cccc2sc(N3CCN(c4nc5ccccc5s4)CC3)nc12`, the IC50 is 38 µM. With `CCC(C)Oc1cccc(C(=O)Nc2ccc(CN3CCOCC3)cc2)c1` (configuration not stated), the IC50 was > 50 µM (inactive). Take `CCOc1ccccc1NC(=O)COc1cc(OC)ccc1C(=O)c1ccccc1`: the IC50 is > 50 µM (inactive). Next, `CN(C(=O)CSc1nnc(-c2cc3ccccc3n2C)o1)c1ccccc1`: > 50 µM (inactive). In the case of `Cc1nc(-c2cccc(NC(=O)C3CCN(c4ccccc4)C3=O)c2)no1` (configuration not stated), the 50% inhibitory concentration (IC50) was 37.2 µM. As to `COc1ccc(-c2cc(-c3nnc(CSc4nc5ccccc5n4C)o3)c3ccccc3n2)cc1OC`, the IC50 was > 50 µM (inactive). In the case of `O=C(Nc1cccc(OC(=O)c2ccc(Cl)cc2)c1)c1ccc(Cl)cc1`, the IC50 was 16.8 µM.

Consider `CCc1ccc(-c2nc(SCC(=O)Nc3ccc4[nH]c(=O)[nH]c4c3)n[nH]2)cc1`, for which the IC50 was 27.4 µM. In the case of `Cc1ccccc1NC(=O)C(C)n1c(=O)cc(-c2ccccc2)c2c(C)nn(C)c21` (configuration not stated), the 50% inhibitory concentration (IC50) is 2.67 µM.

Consider `COc1cccc(-n2cnc3cc(C(=O)NC4CC4)ccc3c2=O)c1`, for which the IC50 was 15 µM. In the case of `COc1ccccc1CNC(=O)c1ccccc1OCc1ccccc1Cl`, the IC50 is > 50 µM (inactive).

For the compound `C[C@H](NC(=O)Cc1ccccc1F)c1nc2cc(-c3ccccc3F)ncn2n1`, the IC50 was > 50 µM (inactive). For `CCOC(=O)c1cc2c(ccn2C)n1Cc1cccc2ccccc12`, the IC50 was > 50 µM (inactive). Take `Cc1noc(C)c1COc1cccc(C(=O)Nc2cc(Cl)ccc2-n2cncn2)c1`: the IC50 is > 50 µM (inactive). With `Cc1c(-c2ccc(C#N)cc2)oc2ccc(Br)cc2c1=O`, the IC50 is 2.88 µM. As to `CCOC(=O)c1cc2c(ccn2C)n1CC(=O)N1CCc2ccccc2C1`, the IC50 was > 50 µM (inactive).

Regarding `O=C(CCCn1c(=O)c2ccccc2n(CC(=O)NCc2ccccc2Cl)c1=O)NCc1ccc2c(c1)OCO2`, the IC50 was 2.2 µM. Take `COc1cccc(-c2cc(=O)[nH]c(Nc3nc(C)c4ccccc4n3)n2)c1`: the half-maximal inhibitory concentration (IC50) is 43.1 µM. For `CC(C)=CCCC1(C)OC2=C(C(=O)c3cc(O)cc(O)c3C2=O)[C@H]2C=C(C)CC[C@H]21` (some centres not stated) the value was 9.83 µM; for `O=C(c1nnn(Cc2ccc(Cl)cc2)c1-n1cccc1)N1CCCC1`, > 50 µM (inactive); for `O=C(NCC(c1cccnc1)N1CCc2ccccc2C1)C(=O)Nc1ccc2c(c1)OCO2` (configuration not stated), 30.5 µM.

Consider `O=C(CSc1nnc(-c2ccncc2)n1Cc1ccccc1)c1ccc2[nH]c(O)cc2c1`, for which the IC50 was 4.12 µM.

As to `COCCCn1c(C(=O)Nc2ccccc2OC)cc2c(=O)n3ccccc3nc21`, the IC50 was 12.4 µM. As to `COc1ccc(NC(=O)c2nnn(-c3ccccc3)c2C)cc1OC`, the IC50 is > 50 µM (inactive).

For the compound `CCOc1ccc(NC(=O)Cn2c(=O)n(CCCCCC(=O)NCc3ccc(F)cc3)c(=O)c3sccc32)cc1`, the IC50 is 2.16 µM.

Regarding `COc1cc(NC(=O)Cn2c(=O)n(-c3ccc(CC(=O)NC4CCCC4)cc3)c(=O)c3ccccc32)cc(OC)c1`, the IC50 is > 5 µM (inactive). Consider `CC1=C(c2ccc(C)c(C)c2)S(=O)(=O)NC1=NCC(=O)NCCCc1ccccc1`, for which the IC50 was 12.5 µM. For `Cc1ccc(C(=O)NCc2ccc(C(=O)Nc3cccc(C)c3)o2)cc1` the value was 32.5 µM. Consider `Cc1ccc2cc(CCNC(=O)c3cccc(Br)c3)c(=O)[nH]c2c1`, for which the IC50 is 38.9 µM.

In the case of `Cc1cc(NC(=O)c2cc(-c3cccnc3)n[nH]2)ccc1Br`, the IC50 was 1.95 µM. Next, `COc1ccccc1NC(=O)Nc1ccc(NC(=O)c2ccccc2O)cc1`: 47.5 µM; `CCCc1nc2sc3c(NCCCN4CCOCC4)ncnc3c2c2c1CCC2`: > 50 µM (inactive).

As to `COc1cc(O)c2c(O)c3c(cc2c1)CC(C)OC3=O` (configuration not stated), the IC50 is 6.24 µM. Regarding `CC1=C(C(=O)Nc2ccccc2C)C(c2ccc(OCc3ccccc3F)cc2)n2ncnc2N1` (configuration not stated), the IC50 was 34.3 µM. As for `O=C(/C=C/c1ccc(F)cc1)Nc1ccc2c(c1)OCCO2`, the IC50 is > 50 µM (inactive). For `Cc1ccc(C(C)C)cc1OCCOCCN1CCNCC1` the value was > 50 µM (inactive). As for `Cc1c(OCC(=O)Nc2nc3ccccc3[nH]2)ccc2c3c(c(=O)oc12)CCC3`, the half-maximal inhibitory concentration (IC50) was 0.339 µM. `Cc1cc(C)cc(-n2cnc3cc(C(=O)NCCC4=CCCCC4)ccc32)c1`: the IC50 is > 50 µM (inactive). Regarding `COc1ccc(-c2nc3n(n2)C(c2cccc(O)c2)C2=C(CCCC2=O)N3)cc1` (configuration not stated), the IC50 is 41.4 µM. Regarding `Cc1sc(NC(=O)CN2CCc3ccccc3C2)nc1-c1ccc2c(c1)CCN2C(=O)C1CCCCC1`, the IC50 was > 50 µM (inactive). Turning to `COc1cc(Cl)ccc1Oc1ncnc2sc(C)c(C)c12`, the IC50 is > 50 µM (inactive). On to `O=C(Nc1cccc(F)c1)c1ncoc1-c1ccco1`, for which the IC50 was > 50 µM (inactive). Next, `Cc1cc(=O)n(CC(=O)Nc2ccccc2C)c(Nc2ccc(F)cc2)n1`: 26.8 µM; `N#Cc1ccc(-c2ccc(OCC(=O)Nc3ccc4c(c3)OCO4)cc2)cc1`: 2.48 µM. For the compound `O=C(COc1cc([N+](=O)[O-])cc2cccnc12)NCCC1=CCCCC1`, the concentration for half-maximal inhibition (IC50) was 23.5 µM.

For the compound `CSc1ccc(CNCc2c(C(=O)O)n(Cc3ccccc3)c3cc(C)ccc23)cc1`, the IC50 is > 50 µM (inactive).

With `COc1ccc(OCCn2c(C3CC(=O)N(c4cccc(C)c4)C3)nc3ccccc32)cc1` (configuration not stated), the IC50 is 0.391 µM. Take `COc1ccc(NC(=O)COc2cc(CSc3ccccc3)ncc2OC)cc1`: the IC50 was 43.7 µM.

As to `Fc1ccc(CN2CCc3nc4cccnc4cc3C2)cc1`, the IC50 is > 50 µM (inactive). For the compound `CCN1C[C@@H]2C[C@]2(c2ccccc2OC)C(=O)c2ncccc21`, the IC50 was > 50 µM (inactive). Regarding `CSc1cccc(NC(=O)CCc2ccc3nc(NC(C)=O)sc3c2)c1`, the IC50 was > 50 µM (inactive). Turning to `CN[C@H]1CC2(CCN(C(=O)CCCn3cccn3)CC2)OC[C@]1(C)O`, the IC50 is > 50 µM (inactive). `COc1cccc2c1C(=O)c1ccc3c(c1C2=O)C(=O)CC(C)(O)C3` (configuration not stated): the half-inhibitory concentration (IC50) was 36.4 µM. Next, `O=C1c2ccccc2-n2c1nc1ccccc1c2=O`: 4.91 µM. Next, `O=C(Nc1ccc(Oc2cccc3cccnc23)cc1)c1cccs1`: > 50 µM (inactive); `Clc1cc2nc(N3CCN(c4ccccn4)CC3)c3nncn3c2cc1Cl`: 2.17 µM; `O=C1N[C@@H](Cc2ccccc2)C(=O)N2[C@H]3Nc4ccccc4[C@@]3([C@]34C[C@H]5C(=O)N[C@@H](Cc6ccccc6)C(=O)N5[C@H]3Nc3ccccc34)C[C@@H]12`: 38.4 µM.

As to `COc1ccc(-c2nc(-c3nnn(Cc4ccc(F)cc4)c3C)no2)c(OC)c1`, the IC50 was 6.53 µM. For the compound `CSc1nc(SCC(N)=O)c2c3c(sc2n1)COC(C)(C)C3`, the IC50 is 36.9 µM. With `COc1ccc2cc1Oc1cc(ccc1OC)C(O)C13SSC4(C(=O)N1C)C(O)C1=COC=CC(OC2=O)C1N4C3=O` (configuration not stated), the IC50 is > 50 µM (inactive). In the case of `Cc1cc(C(=O)NC2(O)C(=O)c3ccccc3C2=O)n(C)n1`, the IC50 is 7.39 µM. Next, `Cc1cc(-n2c(C)cc(-c3csc(N)n3)c2C)no1`: > 50 µM (inactive); `O=c1[nH]c2ccc(S(=O)(=O)Nc3ccc(O)c4ccccc34)cc2[nH]1`: 4.09 µM; `CC(=O)c1cccc(NC(=O)c2ccc(CN(c3ccc(C)c(C)c3)S(C)(=O)=O)cc2)c1`: > 50 µM (inactive). Turning to `O=C(c1cccnc1)N1CCC2(CC1)CC1(CO2)Nc2ccccc2-n2cccc21` (configuration not stated), the IC50 was 21.4 µM. Consider `O=C(NCc1ccccc1)c1ccc2c(=O)n(-c3ccccc3)c(=O)[nH]c2c1`, for which the concentration for half-maximal inhibition (IC50) is 21.8 µM. In the case of `COc1ccc(C)cc1NC(=O)CSc1nc(C)nc2c1oc1ccccc12`, the IC50 was 22.3 µM.

On to `CC(C)Oc1ccc(C(=O)Nc2cccc(S(=O)(=O)N3CCCC3)c2)cc1`, for which the IC50 is > 50 µM (inactive). As for `CC[C@H](C)[C@H](NC(=O)[C@H]([C@@H](C)CC)N(C)C(C)=O)C(=O)N[C@H](C(=O)N[C@@H](CC(C)C)C(=O)C1(C)CO1)[C@@H](C)O` (some centres not stated), the IC50 was > 50 µM (inactive). With `CS(=O)(=O)N1CCCN(c2nc3cc(Cl)ccc3n3cccc23)CC1`, the IC50 is > 50 µM (inactive).

In the case of `FC(F)(F)c1cccc(N2CCN(c3nc4ccccc4n4nnnc34)CC2)c1`, the IC50 was > 50 µM (inactive). For the compound `c1ccc(-n2nnc(-c3noc(-c4cccnc4)n3)c2-c2ccncc2)cc1`, the IC50 is 27.9 µM.

For the compound `COc1ccc(C(C(=O)NCc2ccccc2)N(C(=O)CCN2CCc3ccccc32)c2ccc(C)c(C)c2)cc1` (configuration not stated), the IC50 is > 50 µM (inactive). For `COc1cccc(NC(=O)c2ccc(-c3csc(C)n3)cc2)c1`, the IC50 was > 50 µM (inactive). In the case of `Cn1c(CN2CCCCCC2)nc2cc(NC(=O)c3ccccc3)ccc21`, the IC50 was > 50 µM (inactive).

For `CCOc1ccc(CCNC(=O)c2cccc3c2C(=O)N(CCOC)C3)cc1OCC`, the IC50 is > 50 µM (inactive). With `O=C(CCc1ccc(S(=O)(=O)N2CCOCC2)cc1)Nc1ccc2c(c1)OCCO2`, the IC50 was > 50 µM (inactive).

For `Cc1ccc(-c2nc(-c3cccs3)cc(C(F)(F)F)c2C#N)cc1`, the IC50 was > 50 µM (inactive). Regarding `O=C1CC(c2cc3c(cc2Br)OCO3)c2cc3c(cc2N1)OCCO3` (configuration not stated), the IC50 was 19.6 µM. For `COc1cccc(NC(=O)c2ccc3noc(-c4ccc(Cl)cc4)c3c2)c1`, the half-inhibitory concentration (IC50) is 37.4 µM.
